EP0294307B1, “3-Arylcarbamoyl-5-aminomethyl-oxazolidines, and their salts with pharmaceutically acceptable acids” (CORTIAL S.A., priority 1987, dated 1988)

Legend:
[1] = system: souris; experiment: Toxicity: mortality in mice after oral or intraperitoneal administration; type: in vivo
[2] = system: candida albicans; experiment: In vitro antifungal activity by standard dilution techniques; type: cell-based; details: concentration de 20 microgramme par ml
Source text: In vitro une activité antifongique a été mise en évidence vis à vis de candida albicans pour le COR3296. L'activité observée par des techniques de dilution standard est significative à la concentration de 20 microgramme par ml.

[3] = system: rat génétiquement hypertendu; experiment: Arterial blood pressure in genetically hypertensive rats after oral administration; type: in vivo; details: 60mg/kg voie orale
Experimental: Administré chez le rat génétiquement hypertendu à la dose de 60mg/kg par voie orale le COR3267 entraine une diminution de la pression artérielle de 8, 12 et 14 %, ces variations étant respectivement mesurées 2, 4 et 6 heures après l'administration.

[4] = voie intrapéritonéale, 200mg/kg

N=C1OC(CN2CCN(c3ccccc3)CC2)CN1C(=O)Nc1ccccc1 (stereo not drawn) [COR3262, Phényl carbamoyl-3, imino-2, (phényl-4 pipérazinylméthyl)-5 oxazolidine] was tested, and the mortalité [1, 4] was “aucune mortalité” and the mortalité ([1]; voie orale, 300mg/kg) was “aucune mortalité”.

For N=C1OC(CN2CCN(c3ccccn3)CC2)CN1C(=O)Nc1ccccc1 (stereo not drawn) [COR3263, Phényl carbamoyl-3 imino-2 ((pyridyl-2)-4 pipérazinylméthyl)-5 oxazolidine], the mortalité [1, 4] was “aucune mortalité” and the mortalité ([1]; voie orale, 300mg/kg) was “aucune mortalité”.

N=C1OC(CN2CCN(c3cccc(C(F)(F)F)c3)CC2)CN1C(=O)Nc1ccccc1 (stereo not drawn) [COR3266, Phényl carbamoyl-3 imino-2 ((trifluorométhyl-3 phényl)-4 pipérazinylméthyl)-5 oxazolidine] was tested, and the mortalité [1, 4] was “aucune mortalité” and the mortalité ([1]; voie orale, 300mg/kg) was “aucune mortalité”.

With O=C(Nc1ccccc1)N1CC(CN2CCN(c3cccc(C(F)(F)F)c3)CC2)OC1=O (stereo not drawn) [COR3276, Phényl carbamoyl-3 ((trifluorométhyl-3 phényl)-4 pipérazinylméthyl)-5 oxazolidinone-2] the mortalité [1, 4] was “aucune mortalité” and the mortalité ([1]; voie orale, 300mg/kg) was “aucune mortalité”.

With N=C1OC(CN2CCN(c3ccc(F)cc3)CC2)CN1C(=O)Nc1ccccc1 (stereo not drawn) [COR3278, Phényl carbamoyl-3 imino-2 ((fluoro-4 phényl)-4 pipérazinylméthyl)-5 oxazolidine] the mortalité [1, 4] was “aucune mortalité” and the mortalité ([1]; voie orale, 300mg/kg) was “aucune mortalité”.

N=C1OC(CN2CCN(c3cccc(Cl)c3)CC2)CN1C(=O)Nc1ccccc1 (stereo not drawn) [COR3279, Phényl carbamoyl-3 imino-2 ((chloto-3 phényl)-4 pipérazinylméthyl)-5 oxazolidine] was tested, and the mortalité [1, 4] was “aucune mortalité” and the mortalité ([1]; voie orale, 300mg/kg) was “aucune mortalité”.

N=C1OC(CN2CCN(c3ccccc3)CC2)CN1C(=S)Nc1ccccc1 (stereo not drawn) [COR3296, Phényl thiocarbamoyl-3 imino-2 (phényl-4 pipérazinylméthyl)-5 oxazolidine] was tested, and the activité antifongique [2] was “significative”, the mortalité [1, 4] was “aucune mortalité” and the mortalité ([1]; voie orale, 300mg/kg) was “aucune mortalité”.

“Chlorhydrate de la phényl carbamoyl-3 ((chloro-3 phényl)-4 pipérazinylméthyl)-5 oxazolidinone-2 [COR3277]” was tested, and the mortalité [1, 4] was “aucune mortalité” and the mortalité ([1]; voie orale, 300mg/kg) was “aucune mortalité”.

With “Chlorhydrate de la phényl carbamoyl-3 ((fluoro-4 phényl)-4 pipérazinylméthyl)-5 oxazolidinone-2 [COR3265]” the mortalité [1, 4] was “aucune mortalité” and the mortalité ([1]; voie orale, 300mg/kg) was “aucune mortalité”.

With “Chlorhydrate de la phényl carbamoyl-3, (phényl-4 pipérazinylméthyl)-5 oxazolidinone-2 [COR3267]” the “diminution de la pression artérielle” value ([3]; 2 heures après l'administration) was 8%, the “diminution de la pression artérielle” value ([3]; 4 heures après l'administration) was 12% and the “diminution de la pression artérielle” value ([3]; 6 heures après l'administration) was 14%. The mortalité [1, 4] was “aucune mortalité” and the mortalité ([1]; voie orale, 300mg/kg) was “aucune mortalité”.
